Data published in article PMC10610424, “Enhancing Solubility and Dissolution Rate of Antifungal Drug Ketoconazole through Crystal Engineering” (Pharmaceuticals, 2023).
≈ marks a conversion by molar mass, not a printed value.

Columns and labels:
[1] = pKa values and ΔpKa rule; assay type: physicochemical
Description: To understand the crystal nature of the obtained solid forms (a salt or a cocrystal), three commonly used principles have been summarized, such as the ΔpKa rule, the position of the hydroxyl-H atom retrieved from SCXRD data, and the structural characteristics of interacting groups. The pKa values of the starting functional groups, the ΔpKa values between the two considered groups, the geometric parameters of the C−O bond lengths of the carboxylic/carboxylate group, and the endocyclic C−N−C bond angle are provided in Table 2. Firstly, the ΔpKa rule has long been used for the prediction of salt or cocrystal formation. It is generally accepted that when ΔpKa is >4, proton transfer is expected to occur and salt is anticipated to form; when ΔpKa < −1, on the other hand, the formation of non-ionized cocrystals prevails over that of salts. However, if the ΔpKa values are located in the region of −1 to 4, it is impossible to provide a prediction of a salt or a cocrystal. […] Secondly, the residual density map provided by the SXRD data (Figure S3) could be used to distinguish the location of the H atom and, thus, the cocrystal, salt, and salt–cocrystal continuum could be distinguished. […] Thirdly, the ionization state of the structures was also supported by the difference in the C−O bond lengths in a carboxylic/carboxylate group and the bond angle of C24−N4−C25 in the imidazole ring. In a neutral carboxylic group, the length of C−O is longer than that of C=O, while in the carboxylate anion, there is nearly no difference between the bond lengths of C−O and C−O^− [47]. The endocyclic C−N−C bond angle of the cationic N-heterocycle is higher than that of the neutral state.

[2] = value of the coformer (CCF) of the crystal named in the line; source not given; cited from earlier work
[3] = Equilibrium solubility, shake flask method, HPLC of KTZ; assay type: physicochemical; conditions: for Equilibrium solubility, concentration of KTZ / solubility thermodynamic at 48 h: 37.0 °C, mean ± SD, triplicate; for Equilibrium solubility, concentration of KTZ / solubility thermodynamic at 48 h / Solid-form stability of residual solids after equilibrium solubility experiments (PXRD): 48 h; for Solid-form stability of residual solids after equilibrium solubility experiments (PXRD): ultrapure water and pH 4.5 acetate buffer
Method: The solutions were stirred at 160 strokes min^−1 with a magnetic bar at 37 °C for 48 h to reach equilibrium. The suspension was filtered through a 0.22 μm nylon filter membrane, diluted appropriately, and analyzed by subsequent high-performance liquid chromatography (HPLC) analysis. […] An Agilent Eclipse XDB−C18 (250 mm × 4.6 mm, 5 μm) column was used throughout the process of elution with the column temperature set to 30 °C. The mobile phase, consisting of methanol and water (80/20, v/v), was run at 1.0 mL min^−1 with a detection wavelength of 254 nm. The injection sample volume was 10 μL. The measurements were performed based on an external standard method. All the solubility experiments were performed in triplicate and the results are expressed as the mean value ± standard deviation (SD). Residual solids were collected after the equilibrium solubility experiment and characterized by PXRD for solid-form stability examinations.

[4] = Accelerated stability test, PXRD; assay type: physicochemical; conditions: high temperature 60 °C, high humidity 90%, illumination 4500 lx; 0, 5, 10 days
Method: Approximately 50 mg of powdered samples were stored under the three test conditions and measured at regular time intervals (0, 5, and 10 days) by PXRD [68].

[5] = cited from earlier work
[6] = Powder dissolution experiments, basket method; assay type: physicochemical; conditions: pure water and pH 4.5 acetate buffer, 37 °C, up to 480 min
Method: The powder dissolution experiments were performed via a dissolution apparatus (RC12AD dissolution tester, TDTF Technology Co., Ltd., Tianjin, China) by a basket method in pure water and pH 4.5 acetate buffer solution, respectively, with a rotation speed of 100 rpm under a temperature of 37 ± 0.2 °C [67]. […] At regular time intervals of 5, 15, 30, 60, 90, 120, 180, 240, 360, and 480 min, 1 mL of solution was extracted, and the withdrawn solutions were filtered using a 0.45 μm syringe tip filter. […] All the dissolution experiments were performed in triplicate. After the dissolution experiments, residual solids were collected, air-dried, and confirmed by PXRD.

Structure (SMILES) | ΔpKa Values between CCF and KTZ [1] | pKa Values of CCFs [2] | Solubility of ketoconazole in distilled water ([3]; distilled water (abstract)) | Equilibrium solubility, concentration of KTZ ([3]; pH 4.5 acetate buffer) | Equilibrium solubility, concentration of KTZ ([3]; ultrapure water) | Solubility increase in water concerning ketoconazole ([3]; water) | Stability under accelerated storage conditions (PXRD) [4] | Solubility in water ([5]; water, 25 °C) | solubility at 48 h ([3]; 37 °C, thermodynamic from solid, distilled water (abstract), read-out: Solubility of ketoconazole in distilled water) | solubility thermodynamic at 48 h ([3]; aqueous buffer, thermodynamic from solid, pH 4.5 acetate buffer) | solubility thermodynamic at 48 h ([3]; thermodynamic from solid, ultrapure water) | Solubility in ultrapure water ([5]; ultrapure water) | Solid-form stability of residual solids after powder dissolution experiments (PXRD) [6] | Solid-form stability of residual solids after equilibrium solubility experiments (PXRD) ([3]; 37 °C)
CC(=O)N1CCN(c2ccc(OCC3COC(Cn4ccnc4)(c4ccc(Cl)cc4Cl)O3)cc2)CC1.O=C(O)c1ccc(O)c(O)c1 (racemic) [KTZ−PCA-II] | 2.0 | 4.5 | 386.3 µg/mL | 308.06 ± 33.95 µg/mL | 386.34 ± 89.30 µg/mL | – | – | – | – | – | – | – | – | –
CC(=O)N1CCN(c2ccc(OCC3COC(Cn4ccnc4)(c4ccc(Cl)cc4Cl)O3)cc2)CC1.O=C(O)CCCC(=O)O (racemic) [KTZ−GTA] | 2.2 | 4.3 | 2165.6 µg/mL | 339.87 ± 28.33 µg/mL | 2165.56 ± 251.34 µg/mL | 1800 fold | – | – | – | – | – | – | – | –
CC(=O)N1CCN(c2ccc(OCC3COC(Cn4ccnc4)(c4ccc(Cl)cc4Cl)O3)cc2)CC1 (stereo not drawn) [KTZ, cis-1-acetyl-4-[4-[[2-(2,4-dichlorophenyl)-2-(1-H-imidazole-1-ylmethyl)-1,3-dioxolan-4-yl]methoxy]phenyl] piperazine, reference compound] | – | – | – | – | – | – | stable | 0.087 µg/mL (≈ 0.164 µM) | 1.2 µg/mL (≈ 2.26 µM) | 239 ± 4.69 µg/mL (≈ 451 µM) | 1.2 ± 0.27 µg/mL (≈ 2.26 µM) | – | – | –
CC(=O)N1CCN(c2ccc(OCC3COC(Cn4ccnc4)(c4ccc(Cl)cc4Cl)O3)cc2)CC1.O=C(O)c1ccc(O)c(O)c1 (racemic) [KTZ-PCA-I] | – | – | – | – | – | – | – | – | – | – | – | approximately 500 μg mL^−1 | – | –
CC(=O)N1CCN(c2ccc(OCC3COC(Cn4ccnc4)(c4ccc(Cl)cc4Cl)O3)cc2)CC1.O=C(O)c1cc([N+](=O)[O-])cc([N+](=O)[O-])c1 (racemic) [KTZ−35DNB] | 3.7 | 2.8 | 191.7 µg/mL | 273.66 ± 9.87 µg/mL | 191.67 ± 15.95 µg/mL | – | – | – | – | – | – | – | remained stable | remained stable and nondissociable
CC(=O)N1CCN(c2ccc(OCC3COC(Cn4ccnc4)(c4ccc(Cl)cc4Cl)O3)cc2)CC1.O=C(O)c1c(O)cccc1O (racemic) [KTZ−26DHB] | 3.9 | 1.6 | 139.1 µg/mL | 263.76 ± 8.51 µg/mL | 139.13 ± 14.25 µg/mL | – | – | – | – | – | – | – | remained stable | remained stable and nondissociable
